Literature values, collected in patent publication US20090076140A1, “PHARMACEUTICAL COMPOSITIONS CONTAINING SULPHONIC ACID DERIVATIVES” (ITALFARMACO, S. A., priority 2003, published 2009).

Experiments:
aFGF [1] = target: T1, aFGF (Homo sapiens, UniProt P05230); settings: literature (Pesenti et al.; Cuevas et al.); cited from earlier work
Target sequence in this assay (P05230 whole entry, species assumed): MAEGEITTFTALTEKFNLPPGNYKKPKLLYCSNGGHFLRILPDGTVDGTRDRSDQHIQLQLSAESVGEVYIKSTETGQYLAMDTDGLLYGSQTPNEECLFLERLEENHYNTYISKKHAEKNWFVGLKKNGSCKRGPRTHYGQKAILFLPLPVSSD

aFGF [2] = target: T1, aFGF; design: the aFGF of 139 amino acid residues; settings: Lozano et al. (1998); cited from earlier work
Target sequence in this assay (P05230 16-155 limits assumed): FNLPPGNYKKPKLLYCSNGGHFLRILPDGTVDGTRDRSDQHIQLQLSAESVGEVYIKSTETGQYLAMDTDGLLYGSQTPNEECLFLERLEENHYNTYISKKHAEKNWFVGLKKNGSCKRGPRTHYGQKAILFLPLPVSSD

aFGF [3] = target: T1, aFGF; settings: in vitro and in vivo; cited from earlier work
Target sequence in this assay (P05230 whole entry, species assumed): as the sequence (P05230 whole entry, species assumed) above

SMILES: O=S(=O)(O)c1ccc2c(S(=O)(=O)O)cc(S(=O)(=O)O)cc2c1 [1,3,6-NTS, 1,3,6-naphthalenetrisulfonic acid]
- concentration required to reach substantial neovascularization inhibition (aFGF [1]): about 200 mg/kg
- aFGF-induced mitogenic activity inhibition (literature) (aFGF [2]): aFGF-induced mitogenic activity inhibitors
- aFGF-induced angiogenesis and glioma proliferation inhibition (literature) (aFGF [3]): positive results
